No end group written: not given here. *: point of attachment. Palmitoyl = CCCCCCCCCCCCCCCC(=O)*
Columns and labels:
heart = assay: Phage screen of 12 phage in mice with myocardial infarction; type: in vivo; conditions: for preferential localization of phage-displayed peptide in the heart: mice 1, 3 and 7 days after MI, phage circulated 10 minutes; for time point preference of heart localization after infarct: 1, 3 and 7 days post-MI
Experimental: A limited phage screen of 12 phage was performed in a study against mice with myocardial infarction (MI) lasting 1, 3 and 7 days. This panel of phage was selected to include phage with a greater potential for injured tissue, a positive non-specific control and a negative control phage. All publications and references cited in FIG. 24 are incorporated by reference to the extent such incorporation is not contrary to the invention described therein. Nothing herein is to be construed as an admission that the invention is not entitled to antedate such disclosure by virtue of prior invention.
Amplified phage were mixed in a 1:1 ratio and 200 μl injected at 1×10^9 pfu/ml into animals 1, 3 and 7 days after myocardial ischemia was produced. Phage were allowed to circulate for 10 minutes before the animal was perfused through the left ventricle with warmed DMEM/BSA (1%, ˜10 ml) with the right ventricle cut. Tissues (heart, lung, liver, spleen, kidney) were then harvested and stored on ice in 1 ml of DMEM/BSA (1%) before homogenization (Omni International TH homogenizer). Four washes were performed using PBS/BSA (1%) with centrifugation at 2800 RCF (5 min, 4° C.) and resuspension in PBS/BSA (1%). After the final wash, homogenates were weighed then lysed with 100 μl Triton-X-100 (1% in PBS) on ice for 15 minutes; 900 ul of BLT5403 (OD 600) was then added and incubated for 10 minutes (r.t.). This solution was then serially diluted in LB+CarbenicilHn and 240 ul aliquots taken into 1.2 ml BLT5403 and 600 μl plated on 10 cm agar plates with 4 ml top agar. Following overnight incubation, plaques were counted and the pfu/g tissue homogenate was calculated. Plaques were picked into 30 μl of PBS, 1 μl of this solution was transferred into 14 μl PCR mix (GoTaq Green Master Mix 7.5 μl, 1.5 μl 5 μM T7down (AACCCCTCAAGACCCGTTTA (SEQ ID NO: 13)), 1.5 μl 5 μM T7 Superup (AGCGGACCAGATTATCGCTA (SEQ ID NO: 24)), 3.5 μl of DNAse free water). This mix was then subjected to polymerase chain reaction (PCR) (1 cycle of 5 min 94° C.; 35 cycles of 94° C. 30 s, 50° C. 30 s, 72° C. 1 min; 1 cycle 72° C. 1 min; hold at 4° C.). The PCR samples then underwent cleanup and sequencing.

ischemic hindlimb = assay: Fluorescent peptide homing studies, mouse hindlimb ischemia model; type: in vivo; conditions: for homing of peptide in the mouse ischemic hindlimb: cryosections, FIG. 16; for tissue to which the peptide homed: fluorescent peptide studies
Experimental: Four palmitated peptides were synthesized: SK(biotin)[…] […] Human mesenchymal stem cells (hMSCs) were transiently coated with the four palmitated peptides and fluorescently labeled with Vybrant dye. […] MSCs were grown in DMEM/FBS (10%) supplemented with FGF (5 ng/ml), then trypsinized, washed with DMEM and aliquoted at 1 million cells/vial and resuspended in Tyrodes. […] Cell solutions were then centrifuged (200 RCF, 5 min, r.t.), washed twice with cold Tyrodes, then incubated for 20 min with 20 μg/ml streptavidin-PE (S866 Invitrogen), washed with Tyrodes, fixed with formalin, and then assessed using flow cytometry and epifluorescent microscopy.
For animal experiments, MSCs were first incubated with Vybrant green (CDFA SE; Invitrogen) washed with Tyrodes, then coated with 50 μg/ml PA-peptides for 10 min at 37° C. with shaking. Following coating, cells were washed with Tyrodes twice and resuspended to give 5×10^6 cells/ml. Ischemia was produced in the left hind-limb through ligation and severing of the femoral artery in mice. Three days post ischemia, mice were injected with […] through the subclavian vein and cells allowed to circulate for two hours before sacrifice. Distribution of injected MSCs was monitored by whole-body (“Xenogen”) fluoroscopy. Animals were sacrificed and tissues (heart, lung, liver, spleen, kidney, left calf muscle, left femur muscle, right calf muscle and right femur muscle) were harvested and fluorescence histology was done on tissue cryosections.

ischemic hearts = assay: Uptake and localization of fluorescently labeled CRPPR in ischemic hearts; type: in vivo, mouse; conditions: 30 minutes, 6 hour and 24 hour ischemia
Experimental: Fluorescently labeled CRPPR (SEQ ID NO: 1) was also studied for uptake and localization in ischemic hearts (30 minutes, 6 hour and 24 hour ischemia). This fluorescently labeled peptide was injected through the subclavian vein and allowed to circulate for two hours before sacrifice. Tissues (heart, lung, liver, spleen and kidney) were harvested, placed in TISSUE-TEK® molds and frozen in OCT cryomounting medium. The tissues were stored on dry ice until being placed at −80° C. and 8-10 μn sections were made.
Sections of heart tissue through different regions of the heart were imaged using a fluorescent microscope and CCD camera. The images were then assessed for total fluorescence using ImageJ (Image Processing and Analysis in Java) (see FIG. 2).

heart tissue = assay: Homing of peptide-coated MSCs in mouse MI reperfusion model; type: in vivo, C57BL6 mice; conditions: for distribution of cells within heart tissue: coated MSCs, 1 hour circulation, day after 30 minute ischemia/reperfusion
Experimental: C57BL6 mice were operated on with a sterile surgical technique. Mice were anaesthetized and intubated. A longitudinal incision was made in the thorax and the heart elevated. The left anterior descending artery was identified, and a ligature suture was placed around the artery and tightened down over a piece of polyethylene tubing placed above the artery, as shown in FIG. 1. After 30 minutes the ligation was released, the chest closed and the mouse was allowed to recover. The following day the mouse was again anaesthetized and intubated, the thoracotomy re-opened and cells administered through the left ventricle (1×10^6 cells). Cells were allowed to circulate for 1 hour before blood was collected into EDTA tubes and the mouse sacrificed via exsanguination. Blood was collected just prior to exsanguination to provide samples for assay of Troponin I levels.
Sections were cryosectioned 8 microns thick, mounted in sequence onto slides and viewed for the fluorescent label of the cells.
Histology sections of cardiac tissues were examined for VYBRANT® (CDFA SE; Invitrogen) green-labeled cells to determine the cells' propensity to target or home to distinct regions of the tissues, especially those associated with the infarcted region. Outcomes were evaluated via quantitative fluorescent microscopy of infarcted and non-infarcted tissues. Area in millimeters squared were calculated from representative cross-sections and numbers of cells were counted on a series of sections taken through the heart.
Sections of heart tissue were also analyzed using fluorescent microscopy. Five slides containing six sections per slide were analyzed. On each section a count of the number of cells was made. The count was then normalized against the area of the centre section on that slide.
An enzyme-linked immunosorbent assay (ELISA) (Life Diagnostics, Inc., Cat. No. 2010-1-HSP) of cardiac troponin I was made on the plasma collected from each mouse according to the manufacturer's method. Briefly, 60 μl of plasma sample was diluted with 180 μl plasma diluent. Standards and samples (100 μl) were added to coated wells containing 100 μl of cardiac troponin I horse radish peroxidase conjugate. These were mixed on an orbital shaker at room temperature for 1 hour. This solution was removed and the wells were washed thoroughly; 100 μl of tetramethylbenzidine reagent was then added to each well. This was incubated on the orbital shaker at room temperature for 20 minutes, then stop solution was added (100 μl) and the absorbance read at 450 nm (Tecan Genios Pro).

[1] = system: human mesenchymal stem cells (MSCs); assay: MTT toxicity assay of PA-peptides; type: cell-based; conditions: 1 hour incubation
Experimental: Human mesenchymal stem cells (MSCs) were seeded on 96-well plates (5.8×10^3 cells/well; DMEM/FBS 10%) and allowed to grow/adhere for 2 days. Media was removed and PA-peptides were added (0-0.1 mg/ml) to the cells. Toxicity was assessed after 10 minute incubation and 1 hour incubation. Acute effects were assessed immediately following the 10 minute exposure, and longer-term effects were measured the next day after the 10 minute exposure and the 1 hour exposure. Toxicity was assessed using the MTT method. Briefly, 20 μl of MTT (5 mg/ml in PBS, sterile filtered, Corning 0.22 μm Polyethersulfone) was added to each well and the plate was then incubated for 4 hours at 37° C. Media containing MTT was then carefully removed and 100 μl of dimethyl sulfoxide (DMSO) was added to each well. Plates were incubated for a further 30 minutes at 37° C. to solubilize the purple formazan crystals, and absorbance was then measured using a plate reader (570 nm; Tekan Genios Pro).

[2] = system: human mesenchymal stem cells (MSCs)
Experimental: MSCs were grown in Dulbecco's Modified Eagle's Medium (DMEM) and fetal bovine serum (FBS) (10%) supplemented with fibroblast growth factor-2 (FGF-2) (5 ng/ml) for 1 week. They were then trypsinized, washed with DMEM, aliquoted at 1 million cells/vial and resuspended in Tyrodes' balanced salt solution. […] was later used throughout the coating procedure. […] Cell solutions were centrifuged (200 RCF, 5 min, r.t.), washed twice with cold Tyrodes solution, then incubated for 20 minutes with 20 μg/ml streptavidin-PE (S866 Invitrogen), washed with Tyrodes solution, fixed with formalin, and then assessed using flow cytometry and epifluorescent microscopy.

Substance | preferential localization of phage-displayed peptide in the heart (heart) | distribution of cells within heart tissue (heart tissue) | tissue to which the peptide homed (ischemic hindlimb) | further results
CARSKNKDC (Targeting Sequence 5) | some preferential localization in the heart |  |  | 
CGLIIQKNEC (Targeting Sequence 3) [Clot1, homing peptide] |  |  |  | homing of peptide in the mouse ischemic hindlimb (ischemic hindlimb): homing
CREKA (Targeting Sequence 8) | some preferential localization in the heart |  |  | time point preference of heart localization after infarct (heart): three day time point
CRKDKC (cysteine pairing not given here; also: fluorescent label, position not given here) | some preferential localization |  |  | homing of peptide in the mouse ischemic hindlimb (ischemic hindlimb): homing
CRPPR (not fully specified) | some preferential localization in the heart |  |  | time point preference of heart localization after infarct (heart): some preference for the earlier time point after infarct; ischemia time at which localization was most pronounced (ischemic hearts): most pronounced after 24 hour ischemia; localization of fluorescent peptide in heart tissue (ischemic hearts; two hours circulation): localize in heart tissue
PA-CRKDKC (Palmitoyl-CRKDKC; cysteine pairing not given here) [palmitated peptide (cell paint)] |  | papillary fibers have a higher concentration of cells than the cardiac muscle | homed to ischemic muscle tissue | 
PA-CRPPR (Palmitoyl-CRPPR) [palmitated peptide (cell paint)] |  | some localization with vasculature | homed to cardiac tissue | 
PA-KSTRKS (Palmitoyl-KSTRKS) [palmitated peptide (cell paint)] |  | distributed cells with some localization in vessels | homed to ischemic skeletal muscle tissue | concentrations causing a decrease in mitochondrial activity [1]: ≥ 50 µg/mL
PA-SK(Biotin)NSCARSKNKDC [PA-BioCAR] |  | distributed throughout the cardiac muscle | homed to ischemic skeletal muscle tissue | cell labeling by the peptide ([2]; FIGS. 4 and 5): labeled the cells efficiently; cell-associated fluorescence ([2]; PA-BioCAR 0 to 2 mg/ml, 10 minutes, 37° C., streptavidin-PE): increasing cell-associated fluorescence with increasing PA-BioCAR concentration; correlation between heart damage (cardiac troponin I) and cell number (heart tissue; FIG. 14): more cells localizing in the heart after relatively larger damage
